Measured values: US9365533B2, “Coumarin derivative” (NIPPON ZOKI PHARMACEUTICAL CO., LTD., priority 2012, dated 2016)

Key:
[1] = system: cartilage pieces of bovine metacarpophalangeal joint; assay: Suppressive action to cartilage destruction: release of sGAG induced by IL-1α from cartilage pieces; assay type: cell-based; conditions: Bos taurus, 96 h; 25 μmol/L test substance, 2 h pretreatment; human recombinant IL-1α 3 ng/mL; 4 days at 37° C.; read-out: sGAG Releasing Suppressive Rate (%)
Experimental: Evaluation of Suppressive Action to Cartilage Destruction [Release of sGAG Induced by Interleukin-1α (IL-1α)]
(1) Incubation of Cartilage Pieces
Each four cartilage pieces of bovine metacarpophalangeal joint were placed in each well of a 48-well plate and pretreated for 2 hours with a basal medium [D-MEM (Dulbecco's Modified Eagle Medium) containing 2 mmol/L of glutamine, 25 mmol/L of Hepes, 100 μg/mL of streptomycin, 100 IU/mL of penicillin and 5.6 μg/mL of amphotericin B] containing 25 μmol/L of a test substance. Human recombinant IL-1α (3 ng/mL) was added thereto followed by incubating at 37° C. for 4 days in a CO2 incubator set at 5 vol % of CO2. Culture supernatant and cartilage pieces were recovered and stored by freezing until the measurement for each of them.
(2) Measurement of the Amount of sGAG and Calculation of the Suppressive Rate for the Release of sGAG
The recovered cartilage pieces were treated with a papain solution [containing 1 mg/mL of papain, 100 mmol/L of sodium phosphate (pH 6.5), 5 mmol/L of L-cysteine and 5 mmol/L of disodium ethylenediaminetetraacetate (EDTA)] at 65° C. for about 16 hours to solubilize. Amount of sGAG in the resulting extract was measured using an sGAG Alcian Blue Binding Kit (Wieslab AB) which is a quantitative kit to which a Alcian blue staining protocol is applied. sGAG in the culture supernatant after the incubation was measured without subjecting to a papain treatment. Each releasing rate of sGAG was determined by the following formula to calculate the suppressive rate for the release of sGAG. Releasing rate (%) of sGAG={(Total sGAG amount in the culture supernatant)/[(Total sGAG amount in the culture supernatant)+(Total sGAG amount in the cartilage pieces)]}×100 Suppressive rate (%) for release of sGAG={[Releasing rate of sGAG (IL-1α stimulation)−Releasing rate of sGAG (Test substance)]/[Releasing rate of sGAG (IL-1α stimulation)−Releasing rate of sGAG (Non-stimulation)]}×100

[2] = system: HFLS-OA cells; assay: Suppressive action to TNF-α-induced proliferation of synovial cells (HFLS-OA), BrdU ELISA; assay type: cell-based; conditions: 200 μmol/L test substance, human recombinant TNF-α 10 ng/mL, 5 days, BrdU incorporation increase by TNF-α = 100%; for activity at 200 µM: Synovial cell, 120 h, read-out: Synovial Cell Proliferation Rate (%)
Experimental: Evaluation of Suppressive Action to Cell Proliferation of Synovial Cells (HFLS-OA) Derived from Tissues of Human Osteoarthritis
(1) Incubation of HFLS-OA Cells
HFLS-OA cells were sown onto a 96-well plate so as to make them 10^4 cells/well/100 μL in a D-MEM containing 2 vol % of fetal bovine serum (FBS) and incubated for 24 hours. A test substance (200 μmol/L) and human recombinant TNF-α (10 ng/mL) were added thereto followed by incubating for 5 days.
(2) Measurement of Action to HFLS-OA Cell Proliferation
A kit [Cell Proliferation ELISA, BrdU (colorimetric) (Roche Diagnostics)] was used and measurement was conducted according to the protocol attached to the kit. HFLS-OA cells were incubated for 3 days and 10 μL of 5-bromo-2′-deoxyuridine (BrdU) dissolved in a phosphate buffered saline (PBS) (100 μmol/L, pH 7.4) was added to each well followed by incubating for 48 hours more. After the culture supernatant was removed from each well, 200 μL/well of an immobilization/denaturation solution was added thereto and the mixture was allowed to stand for 30 minutes whereby immobilization of the cells and denaturation of DNA were conducted. After the immobilization/denaturation solution was completely removed, 100 μL of a peroxidase-labeled anti-BrdU antibody solution was added thereto and the mixture was made to react at room temperature for 90 minutes. After washing with PBS, 100 μL of a substrate liquid (tetramethylbenzidine) was added to each well and the absorbance was measured. A cell proliferation rate upon addition of each test substance was calculated where an increase in incorporation of BrdU upon addition of TNF-α was defined as 100% of cell proliferation rate.

## COc1ccc(S(=O)(=O)Nc2cc3cccc(OS(=O)(=O)c4ccc(OC)cc4)c3oc2=O)cc1 [Compound 1, 3-[(4-Methoxyphenyl)sulfonylamino]-2-oxochromen-8-yl 4-methoxybenzenesulfonate]
[1]
  inhibition at 25 µM: 93%
[2]
  activity at 200 µM: -39.1%

## COc1cccc(S(=O)(=O)Nc2cc3cccc(OS(=O)(=O)c4cccc(OC)c4)c3oc2=O)c1 [Compound 2, 3-[(3-Methoxyphenyl)sulfonylamino]-2-oxochromen-8-yl 3-methoxybenzenesulfonate]
[2]
  activity at 200 µM: -52.2%

## COc1ccccc1S(=O)(=O)Nc1cc2cccc(OS(=O)(=O)c3ccccc3OC)c2oc1=O [Compound 3, 3-[(2-Methoxyphenyl)sulfonylamino]-2-oxochromen-8-yl 2-methoxybenzenesulfonate]
[2]
  activity at 200 µM: -65.1%

## Cc1ccc(S(=O)(=O)Nc2cc3cccc(OS(=O)(=O)c4ccc(C)cc4)c3oc2=O)cc1 [Compound 4, 2-Oxo-3-(p-tolylsulfonylamino)chromen-8-yl 4-methyl-benzenesulfonate]
[2]
  activity at 200 µM: -88.1%

## Cc1cccc(S(=O)(=O)Nc2cc3cccc(OS(=O)(=O)c4cccc(C)c4)c3oc2=O)c1 [Compound 5, 3-(m-Tolylsulfonylamino)-2-oxochromen-8-yl 3-methyl-benzenesulfonate]
[2]
  activity at 200 µM: -84.9%

## Cc1ccccc1S(=O)(=O)Nc1cc2cccc(OS(=O)(=O)c3ccccc3C)c2oc1=O [Compound 6, 3-(o-Tolylsulfonylamino)-2-oxochromen-8-yl 2-methyl-benzenesulfonate]
[2]
  activity at 200 µM: -77.4%

## O=c1oc2c(OS(=O)(=O)c3ccc(Cl)cc3)cccc2cc1NS(=O)(=O)c1ccc(Cl)cc1 [Compound 7, 3-[(4-Chlorophenyl)sulfonylamino]-2-oxochromen-8-yl 4-chlorobenzenesulfonate]
[2]
  activity at 200 µM: -92.5%

## O=c1oc2c(OS(=O)(=O)c3cccc(Cl)c3)cccc2cc1NS(=O)(=O)c1cccc(Cl)c1 [Compound 8, 3-[(3-Chlorophenyl)sulfonylamino]-2-oxochromen-8-yl 3-chlorobenzenesulfonate]
[2]
  activity at 200 µM: -94.4%

## O=c1oc2c(OS(=O)(=O)c3ccccc3Cl)cccc2cc1NS(=O)(=O)c1ccccc1Cl [Compound 9, 3-[(2-Chlorophenyl)sulfonylamino]-2-oxochromen-8-yl 2-chlorobenzenesulfonate]
[2]
  activity at 200 µM: -88.8%

## O=c1oc2c(OS(=O)(=O)c3ccc(F)cc3)cccc2cc1NS(=O)(=O)c1ccc(F)cc1 [Compound 10, 3-[(4-Fluorophenyl)sulfonylamino]-2-oxochromen-8-yl 4-fluorobenzenesulfonate]
[2]
  activity at 200 µM: -34.9%

## O=c1oc2c(OS(=O)(=O)c3cccc(F)c3)cccc2cc1NS(=O)(=O)c1cccc(F)c1 [Compound 11, 3-[(3-Fluorophenyl)sulfonylamino]-2-oxochromen-8-yl 3-fluorobenzenesulfonate]
[2]
  activity at 200 µM: -90.6%

## O=c1oc2c(OS(=O)(=O)c3ccccc3F)cccc2cc1NS(=O)(=O)c1ccccc1F [Compound 12, 3-[(2-Fluorophenyl)sulfonylamino]-2-oxochromen-8-yl 2-fluorobenzenesulfonate]
[2]
  activity at 200 µM: -91.8%

## N#Cc1ccc(S(=O)(=O)Nc2cc3cccc(OS(=O)(=O)c4ccc(C#N)cc4)c3oc2=O)cc1 [Compound 13, 3-[(4-Cyanophenyl)sulfonylamino]-2-oxochromen-8-yl 4-cyanobenzenesulfonate]
[1]
  inhibition at 25 µM: 44%
[2]
  activity at 200 µM: -54.1%

## N#Cc1cccc(S(=O)(=O)Nc2cc3cccc(OS(=O)(=O)c4cccc(C#N)c4)c3oc2=O)c1 [Compound 14, 3-[(3-Cyanophenyl)sulfonylamino]-2-oxochromen-8-yl 3-cyanobenzenesulfonate]
[1]
  inhibition at 25 µM: 66%
[2]
  activity at 200 µM: -60.3%

## N#Cc1ccccc1S(=O)(=O)Nc1cc2cccc(OS(=O)(=O)c3ccccc3C#N)c2oc1=O [Compound 15, 3-[(2-Cyanophenyl)sulfonylamino]-2-oxochromen-8-yl 2-cyanobenzenesulfonate]
[2]
  activity at 200 µM: -3.3%

## O=c1oc2c(OS(=O)(=O)c3ccc([N+](=O)[O-])cc3)cccc2cc1NS(=O)(=O)c1ccc([N+](=O)[O-])cc1 [Compound 16, 3-[(4-Nitrophenyl)sulfonylamino]-2-oxochromen-8-yl 4-nitrobenzenesulfonate]
[1]
  inhibition at 25 µM: 112%
[2]
  activity at 200 µM: -19.9%

## O=c1oc2c(OS(=O)(=O)c3cccc([N+](=O)[O-])c3)cccc2cc1NS(=O)(=O)c1cccc([N+](=O)[O-])c1 [Compound 17, 3-[(3-Nitrophenyl)sulfonylamino]-2-oxochromen-8-yl 3-nitrobenzenesulfonate]
[1]
  inhibition at 25 µM: 156%
[2]
  activity at 200 µM: -24.9%

## O=c1oc2c(OS(=O)(=O)c3ccccc3[N+](=O)[O-])cccc2cc1NS(=O)(=O)c1ccccc1[N+](=O)[O-] [Compound 18, 3-[(2-Nitrophenyl)sulfonylamino]-2-oxochromen-8-yl 2-nitrobenzenesulfonate]
[1]
  inhibition at 25 µM: 81%
[2]
  activity at 200 µM: -23.8%

## N#Cc1ccc(S(=O)(=O)Oc2cccc3cc(NS(=O)(=O)c4ccccc4)c(=O)oc23)cc1 [Compound 20, 3-(Benzenesulfonylamino)-2-oxochromen-8-yl 4-cyanobenzenesulfonate]
[1]
  inhibition at 25 µM: 35%
[2]
  activity at 200 µM: -42.1%

## N#Cc1ccc(S(=O)(=O)Nc2cc3cccc(OS(=O)(=O)c4ccccc4)c3oc2=O)cc1 [Compound 21, 3-[(4-Cyanophenyl)sulfonylamino]-2-oxochromen-8-yl benzenesulfonate]
[1]
  inhibition at 25 µM: 69%
[2]
  activity at 200 µM: -41.2%

## N#Cc1cccc(S(=O)(=O)Nc2cc3cccc(OS(=O)(=O)c4ccccc4)c3oc2=O)c1 [Compound 22, 3-[(3-Cyanophenyl)sulfonylamino]-2-oxochromen-8-yl benzenesulfonate]
[1]
  inhibition at 25 µM: 92%
[2]
  activity at 200 µM: -38.4%

## O=c1oc2c(OS(=O)(=O)c3ccccc3)cccc2cc1NS(=O)(=O)c1ccc([N+](=O)[O-])cc1 [Compound 23, 3-[(4-Nitrophenyl)sulfonylamino]-2-oxochromen-8-yl benzenesulfonate]
[1]
  inhibition at 25 µM: 103%
[2]
  activity at 200 µM: -39%

## O=c1oc2c(OS(=O)(=O)c3ccccc3)cccc2cc1NS(=O)(=O)c1cccc([N+](=O)[O-])c1 [Compound 24, 3-[(3-Nitrophenyl)sulfonylamino]-2-oxochromen-8-yl benzenesulfonate]
[1]
  inhibition at 25 µM: 90%
[2]
  activity at 200 µM: -40%

## O=c1oc2c(OS(=O)(=O)c3ccccc3)cccc2cc1NS(=O)(=O)c1cccc(F)c1 [Compound 25, 3-[(3-Fluorophenyl)sulfonylamino]-2-oxochromen-8-yl benzenesulfonate]
[1]
  inhibition at 25 µM: 77%
[2]
  activity at 200 µM: -40.9%

## O=c1oc2c(OS(=O)(=O)c3ccccc3)cccc2cc1NS(=O)(=O)c1ccc(F)c(F)c1 [Compound 26, 3-[(3,4-Difluorophenyl)sulfonylamino]-2-oxochromen-8-yl benzenesulfonate]
[1]
  inhibition at 25 µM: 97%
[2]
  activity at 200 µM: -38.4%

## CS(=O)(=O)Nc1cc2cccc(OS(=O)(=O)c3cccc(Br)c3)c2oc1=O [Compound 39, 3-(Methanesulfonamide)-2-oxochromen-8-yl 3-bromobenzenesulfonate]
[2]
  Synovial Cell Proliferation Rate (%): −43.0%

## CS(=O)(=O)Nc1cc2cccc(OS(=O)(=O)c3ccccc3)c2oc1=O [Compound 40, 3-(Methanesulfonamide)-2-oxochromen-8-yl benzene-sulfonate]
[2]
  Synovial Cell Proliferation Rate (%): −40.5%
